Where no end group is shown, it is not given here.

Holding throughout (type): cell-based
The test system of one test is Shh protein. Put plainly: Western blot of Shh protein expression. As to conditions: keratinocytes, 10 μg/ml, 24 hr. The procedure: To verify whether the peptides synthesized in preparation Example 1 enhances the expression of Shh protein which is known as EDA1 target molecule and to stimulate the hair follicle, kerationcytes (3×10^5 cells) was added to each well of 96-well plates and cultured under 5% CO2 for 24 hr at 37° C. After 24-hr culture, the medium was changed with a fresh medium without serum and cells were treated with empty sample (for normalization) and peptides synthesized aseptically dissolved in distilled water with the concentration of 10 μg/ml and cultured for 24 hr under the same conditions as described above. After that, the cell culture was collected and the expression level of Shh was measured through Western blotting using the specific antibody to Shh protein.
For orientation: Immunoblotting shows a protein as a band on a membrane.

For another test, the system named is IL-1b, IL-6, and COX-2. Put plainly: RT-PCR of NF-κB-induced genes. The settings on record: HaCaT keratinocytes. The procedure:
(§1) HaCaT kerationcytes were incubated with the peptides synthesized in preparation Example 1 for 20 min. The translocation of NF-κB into nucleus through the phosphorylation of IκB was examined as a representative signaling of EDA protein. The respective effect was measured by Western blot analysis using an antibody against IκB and NF-κB (SantaCruz, USA). The effect of IκB degradation through phosphorylation and uniquitination in a concentration dependent manner of the treated peptides of this invention was confirmed (FIGS. 3a and 3b). Furthermore, the activation and nucleus translocation of NF-κB was also observed after degradation of IκB (FIGS. 4a and 4b). […] The expression levels of the above mentioned proteins of IL-1b, IL-6, and COX-2 were increased with the translocations of NF-κB into nucleus which is induced by the treatments of the peptides.

The subject of a further test is NIH3T3 fibroblasts. Nature of the test: SRB colorimetric assay of cell growth. As to conditions: 1, 10 and 50 μg/ml, 72 hr, absorbance at 590 nm. The procedure:
In order to evaluate three peptides prepared in Preparation Example 1 whether they have similar activities of growth factor, SRB (Sulforhodamine B; Sigma-Aldrich) colorimetric assay was carried out using HaCaT kerationcytes (Korean Cell Line Bank) and NIH3T3 fibroblasts (Korean Cell Line Bank) according to Rizzino et al. method (Rizzino, et al. Cancer Res., 48: 4266 (1988)).
HaCaT ketatinocytes and NIH3T3 fibroblasts were cultured in 250 ml-flasks containing EMEM (Eagle's minimal essential media; Gibco, USA) supplemented with 10% FBS (fetal bovine serum; Sigma). Cells cultured were treated with 1% trypsin solution to detach cells from the bottom of culture flasks and centrifuged to collect cell pellets. After cells were resuspended in EMEM not containing FBS, its aliquot (3×10^3 cells) was added to each well of 96-well plates and cultured under 5% CO2 for 24 hr at 37° C. After 24-hr culture, the medium was changed with a fresh medium without serum and cells were incubated with empty sample (for normalization) and peptides synthesized aseptically dissolved in […] distilled water with the respective concentrations of 1 μg/ml, 10 μg/ml and 50 μg/ml for 72 hr under the same conditions as described above. After removing supernatants, cells were fixed with ethanol and then washed three times using PBS (phosphate buffered saline), followed by incubation with SRB solution. Cells were sufficiently washed with 1% acetic acid and observed under a microscope to find living cell condition. In addition, absorbance at 590 nm was measured to analyze cell viability.
(In general: In SRB staining, fixed cells bind dye roughly in proportion to their protein.)

For another test, the system named is IκB. Nature of the test: Western blot of IκB degradation (EDA1-EDAR signal). As to conditions: HaCaT keratinocytes, 20 min. The procedure: as §1
Another test relates to NF-κB. Put plainly: Western blot of NF-κB translocation into nucleus. As to conditions: HaCaT keratinocytes, 20 min. The procedure: as §1

LLADTTHHRPWT [compound 2]: in the test with Shh protein, the “expression of Shh protein” value is reported as “remarkably enhanced”. Also, the “expression of COX-2, IL-6, IL-1b” value in the test with IL-1b, IL-6, and COX-2 was “remarkably enhanced”. The growth of fibroblasts result in the test with NIH3T3 fibroblasts was “notably increases”; in the test with NIH3T3 fibroblasts (listed as SEQ ID NO:2) it was “stimulatory effect”. In addition, in the test with IκB, the “cellular amount of IκB protein (degradation through phosphorylation and ubiquitination)” value was “reduced”. Moreover, in the test on NF-κB, the “translocation of NF-κB into nucleus” value is “translocation of NF-κB into nucleus after activation”.

Consider NMSKHTTFFGA, for which, in the test with Shh protein, the “expression of Shh protein” value is given as “remarkably enhanced”. Further, in the test with IL-1b, IL-6, and COX-2, the “expression of COX-2, IL-6, IL-1b” value is listed as “remarkably enhanced”. Moreover, the growth of fibroblasts entry in the test with NIH3T3 fibroblasts is recorded as “notably increases”; with NIH3T3 fibroblasts (listed as SEQ ID NO:1), “stimulatory effect”. Moreover, the “cellular amount of IκB protein (degradation through phosphorylation and ubiquitination)” value in the test on IκB is “reduced”. Besides, the “translocation of NF-κB into nucleus” value in the test with NF-κB was “translocation of NF-κB into nucleus after activation”.
